Data reported in patent US20070190004A1, “Substances with a probiotic action used in deodorants” (priority 2004, published 2007).

Experiments:
[1] = system: Staphylococcus epidermidis; test: Growth of S. epidermidis in LB liquid culture with test substance, OD (600 nm) versus control; assay type: cell-based; details: for Growth effect, promoting or inhibiting factor compared to the control: S. epidermidis
Experimental: (§1) From liquid precultures of S. epidermidis and S. hominis, cultures in LB medium with an optical density OD (600 nm) of 0.05 were inoculated. In parallel to the controls (without the addition of cells or extract), in each case 2 cultures were treated with 1% plant extract and the growth was documented over 30 h by reference to the OD measurement. After 30 h, the difference in the OD of the cultures with extract additive to the corresponding controls (without extract additive, corrected by the value without cells) was determined.
(§2) From liquid precultures of S. epidermidis and S. hominis, cultures in LB medium with an optical density OD (600 nm) of 0.05 were inoculated. In parallel to the controls (without the addition of cells or extract), in each case 2 cultures were treated with 1% plant extract and the growth was documented over 30 h by reference to the OD measurement. After 30 h, the difference in the OD of the cultures with extract additive to the corresponding controls (without extract additive, corrected by the value without cells) was determined. Various hibiscus extracts from Cosmetochem were used, namely “herbasol extract unpreserved carcade in 80% PG,” “carcade (hibiscus) herbasec” and “carcade (hibiscus) herbasol extract oil-soluble.”
as §1, with “myristate),” for “extract),”, “myristate derivative” for “plant extract”, “8” for “30”, “myristate” for “extract”
(§3) From liquid precultures of S. epidermidis and S. hominis, cultures in LB medium with an optical density OD (600 nm) of 0.05 were inoculated. In parallel to the controls [without the addition of cells or ethylhexyl glycerol (Sensiva SC 50, Schülke&Mayr)], in each case 2 cultures were treated with 0.1% ethylhexyl glycerol and the growth was documented over 24 h by reference to the OD measurement. After 4 h, 8 h and 24 h, the difference in the OD of the cultures with ethylhexyl glycerol to the corresponding controls (without extract additive, corrected by the value without cells) was determined.

Staphylococcus hominis = test: Growth of S. hominis in LB liquid culture with test substance, OD (600 nm) versus control; assay type: cell-based; details: for Growth effect, promoting or inhibiting factor compared to the control: S. hominis
Experimental: as §1, §2
as §1, with “myristate),” for “extract),”, “myristate derivative” for “plant extract”, “8” for “30”, “myristate” for “extract”
as §3

[2] = 1% myristate derivative, after 8 h, LB medium, OD 600 nm

Question: With CCCCCCCCCCCCCC(=O)OCC [Ethyl myristate, ethyl myristate] as the molecule, how does the “Effect on growth of S. epidermidis (in words)” value ([1]; 1% myristate derivative, 8 h) read?
Answer: The value was “moderate promotion of S. epidermidis”.

Question: What about the “Growth effect, promoting or inhibiting factor compared to the control” value [1, 2] of the same molecule?
Answer: Its value is 1.44.

Question: And the “Effect on growth of S. hominis (in words)” value (Staphylococcus hominis; 1% myristate derivative, 8 h)?
Answer: The value was “inhibiting action on S. hominis”.

Question: And the “Growth effect, promoting or inhibiting factor compared to the control” value (Staphylococcus hominis; [2])?
Answer: The value was 0.22.

Question: CCCCCCCCCCCCCC(=O)OC(C)C [Isopropyl myristate, isopropyl myristate] was tested. Which “Effect on growth of S. epidermidis (in words)” value ([1]; 1% myristate derivative, 8 h) did it give?
Answer: The value was “moderate promotion of S. epidermidis”.

Question: What about the “Growth effect, promoting or inhibiting factor compared to the control” value [1, 2] of the same molecule?
Answer: The value was 1.24.

Question: What about the “Effect on growth of S. hominis (in words)” value (Staphylococcus hominis; 1% myristate derivative, 8 h) of the same molecule?
Answer: The value was “inhibiting action on S. hominis”.

Question: What about the “Growth effect, promoting or inhibiting factor compared to the control” value (Staphylococcus hominis; [2]) of the same molecule?
Answer: Its value is 0.50.

Question: What does the source list for CCCCC(CC)COCC(O)CO (stereo not drawn) [ethylhexyl glycerol, 1-(2-Ethylhexyl) glycerol ether]?
Answer: Growth effect, promoting or inhibiting factor compared to the control ([1]; 0.1% ethylhexyl glycerol, 4 h): 1.06; Growth effect, promoting or inhibiting factor compared to the control ([1]; 0.1% ethylhexyl glycerol, 8 h): 1.06; Growth effect, promoting or inhibiting factor compared to the control ([1]; 0.1% ethylhexyl glycerol, 24 h): 1.10; Effect on growth of S. hominis (in words) (Staphylococcus hominis; 0.1% ethylhexyl glycerol, up to 24 h): inhibits S. hominis; Growth effect, promoting or inhibiting factor compared to the control (Staphylococcus hominis; 0.1% ethylhexyl glycerol, 4 h): 0.87; Growth effect, promoting or inhibiting factor compared to the control (Staphylococcus hominis; 0.1% ethylhexyl glycerol, 8 h): 0.92; Growth effect, promoting or inhibiting factor compared to the control (Staphylococcus hominis; 0.1% ethylhexyl glycerol, 24 h): 0.76
